Laboratory results: US20070207946A1, “Dipeptidyl peptidase IV inhibitors and their uses for lowering blood pressure levels” (priority 2001, published 2007)
Read-outs that look alike come from different tables or passages of the source. Square brackets hold non-standard residues; d marks the D form. Peptide text beside a SMILES is read from it. * marks the point of attachment. pY = N[C@@H](Cc1ccc(OP(=O)(O)O)cc1)C(=O)O; aIle = CC[C@@H](C)[C@H](N)C(=O)O; Aoc(2) = CCCCCC[C@H](N)C(=O)O; Tle = CC(C)(C)[C@H](N)C(=O)O; Orn = NCCC[C@H](N)C(=O)O; Aze = O=C(O)[C@@H]1CCN1; Nva = CCC[C@H](N)C(=O)O; Abu = CC[C@H](N)C(=O)O; Bn = c1ccc(C*)cc1

What was measured:
purified porcine DPIV = purified porcine DPIV (Sus scrofa, UniProt P22411); assay: Determination of IC50 values (DPIV, Gly-Pro-pNA); assay type: biochemical; settings: Gly-Pro-pNA 0.4 mM, HEPES pH7.6, 30° C.
Chain of purified porcine DPIV (P22411 whole entry): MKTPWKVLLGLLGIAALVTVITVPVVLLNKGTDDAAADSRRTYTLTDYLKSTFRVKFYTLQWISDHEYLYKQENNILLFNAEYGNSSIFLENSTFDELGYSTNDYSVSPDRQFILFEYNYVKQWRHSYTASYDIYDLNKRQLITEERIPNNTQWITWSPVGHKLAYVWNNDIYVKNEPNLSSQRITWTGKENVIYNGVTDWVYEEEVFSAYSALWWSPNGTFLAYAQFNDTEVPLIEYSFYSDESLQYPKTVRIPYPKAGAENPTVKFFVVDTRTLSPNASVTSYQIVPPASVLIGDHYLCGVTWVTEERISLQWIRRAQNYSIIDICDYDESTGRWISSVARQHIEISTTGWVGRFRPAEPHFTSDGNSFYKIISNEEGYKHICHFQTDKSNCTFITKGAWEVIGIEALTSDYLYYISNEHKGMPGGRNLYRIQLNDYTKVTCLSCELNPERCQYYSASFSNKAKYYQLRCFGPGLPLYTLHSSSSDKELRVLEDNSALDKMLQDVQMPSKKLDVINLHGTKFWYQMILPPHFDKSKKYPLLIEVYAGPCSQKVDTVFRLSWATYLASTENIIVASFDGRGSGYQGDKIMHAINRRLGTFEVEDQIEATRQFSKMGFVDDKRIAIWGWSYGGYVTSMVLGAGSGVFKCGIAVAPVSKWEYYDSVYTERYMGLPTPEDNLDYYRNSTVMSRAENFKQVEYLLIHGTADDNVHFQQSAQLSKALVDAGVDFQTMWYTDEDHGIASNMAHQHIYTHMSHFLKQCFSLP
Description: 100 μl inhibitor stock solution were mixed with 100 μl buffer (HEPES pH7.6) and 50 μl substrate (Gly-Pro-pNA, final concentration 0.4 mM) and preincubated at 30° C. Reaction was started by addition of 20 μl purified porcine DPIV. Formation of the product pNA was measured at 405 nm over 10 min using the HTS 7000Plus plate reader (Perkin Elmer) and slopes were calculated. The final inhibitor concentrations ranged between 1 mM and 30 nM. For calculation of IC50 GraFit 4.0.13 (Erithacus Software) was used.

plasma DPIV activity = target: T1, plasma DPIV activity (Rattus norvegicus, UniProt P14740); assay: DPIV inhibiting activity after intravasal and oral administration to Wistar rats; assay type: in vivo; settings: for inhibition at 100 mg/kg: rat; for in vivo DPIV-inhibition at tmax, i.v. / in vivo DPIV-inhibition at tmax, p.o.: dose 100 mg/kg
T1 construct: from tissue; host or cells: plasma of Wistar rats
T1 sequence (P14740 38-767 limits assumed): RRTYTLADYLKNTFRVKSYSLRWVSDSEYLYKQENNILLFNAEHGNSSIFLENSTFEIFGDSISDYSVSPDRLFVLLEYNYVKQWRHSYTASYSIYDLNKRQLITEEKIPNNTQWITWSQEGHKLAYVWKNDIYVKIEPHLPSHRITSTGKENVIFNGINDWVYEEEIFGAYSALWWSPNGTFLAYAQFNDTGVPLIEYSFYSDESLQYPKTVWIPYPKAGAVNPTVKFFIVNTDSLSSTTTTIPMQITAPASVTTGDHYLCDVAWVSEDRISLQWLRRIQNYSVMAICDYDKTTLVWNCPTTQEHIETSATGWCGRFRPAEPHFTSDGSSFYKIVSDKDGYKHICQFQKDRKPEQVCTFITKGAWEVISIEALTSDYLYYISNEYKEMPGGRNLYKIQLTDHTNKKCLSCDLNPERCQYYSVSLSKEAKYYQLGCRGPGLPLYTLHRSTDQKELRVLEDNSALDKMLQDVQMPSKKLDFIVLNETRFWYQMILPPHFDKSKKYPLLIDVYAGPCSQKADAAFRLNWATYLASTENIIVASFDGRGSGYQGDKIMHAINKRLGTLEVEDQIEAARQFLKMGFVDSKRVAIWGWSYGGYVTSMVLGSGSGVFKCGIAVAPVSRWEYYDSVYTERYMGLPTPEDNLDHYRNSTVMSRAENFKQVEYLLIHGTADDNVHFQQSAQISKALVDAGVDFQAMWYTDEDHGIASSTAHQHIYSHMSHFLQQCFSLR
Description: Male Wistar rats (Shoe: Wist(Sho)) with a body weight ranging between 250 and 350 g were purchased from Tierzucht Schönwalde (Schönwalde, Germany).
Animals were single-caged under conventional conditions with controlled temperature (22±2° C.) on a 12/12 hours light/dark cycle (light on at 06:00 AM). Standard pelleted chow (ssniff® Soest, Germany) and tap water acidified with HCl were allowed ad libitum.
After ≧one week of adaptation at the housing conditions, catheters were implanted into the carotid artery of Wistar rats under general anaesthesia (i.p. injection of 0.25 ml/kg b.w. Rompun® [2%], BayerVital, Germany and 0.5 ml/kg b.w. Ketamin 10, Atarost GmbH & Co., Twistringen, Germany). The animals were allowed to recover for one week. The catheters were flushed with heparin-saline (100 IU/ml) three times per week. In case of catheter dysfunction, a second catheter was inserted into the contra-lateral carotid artery of the respective rat. After one week of recovery from surgery, this animal was reintegrated into the study. In case of dysfunction of the second catheter, the animal was withdrawn from the study. A new animal was recruited and the experiments were continued in the planned sequence, beginning at least 7 days after catheter implantation.
After overnight fasting, 100 μl samples of heparinised arterial blood were collected at −30, −5, and 0 min. […] In the case of oral administration, an additional volume of 1 ml saline was injected into the arterial catheter. In the case of infra-arterial administration, the catheter was immediately flushed with 30 μl saline and an additional 1 ml of saline was given orally via the feeding tube.
All blood samples were collected into ice cooled Eppendorf tubes (Eppendorf-Netheler-Hinz, Hamburg, Germany) filled with 10 μl 1M sodium citrate buffer (pH 3.0) for plasma DPIV activity measurement. Eppendorf tubes were centrifuged immediately (12000 rpm for 2 min, Hettich Zentrifuge EBA 12, Tuttlingen; Germany): The plasma fractions were stored on ice until analysis or were frozen at −20° C. until analysis. All plasma samples were labelled with the following data:
The assay mixture for determination of plasma DPIV activity consisted of 80 μl reagent and 20 μl plasma sample. […] The DPIV activity was expressed in mU/ml.
All parameters were analysed in a descriptive manner including mean and SD.

[1] = target: T2, dipeptidyl peptidase IV from porcine kidney (Sus scrofa, UniProt P22411); assay: Ki determination of DPIV inhibition; assay type: biochemical; settings: substrate glycylprolyl-4-nitroaniline, HEPES pH7.6, 30° C.
T2 construct: dipeptidyl peptidase IV from porcine kidney; from tissue; host or cells: porcine kidney
T2 sequence (P22411 whole entry): as the sequence (P22411 whole entry) above

F344 rats = assay: Chronic intragastric infusion via osmotic minipumps over two weeks - blood pressure; assay type: in vivo, rat
Description: Reduced expression of the ectopeptidase DPIV and lack of DPIV-like activity in mutant F344 rats lacking DPIV enzymic activity and expression results in a lowered blood pressure. Mutant F344 substrains lacking DPIV enzymic activity and wild-type-like F344 were tested.

PepT1 [2] = target: T3, PepT1 (Oryctolagus cuniculus, UniProt P36836); assay: Inhibition of binding of 3H-D-Phe-Ala to PepT1-expressing P. pastoris cells; settings: read-out: EC50: concentration inhibiting the binding of 3H-D-Phe-Ala to PepT1-expressing P. pastoris cells by 50%
T3 sequence (P36836 1-707): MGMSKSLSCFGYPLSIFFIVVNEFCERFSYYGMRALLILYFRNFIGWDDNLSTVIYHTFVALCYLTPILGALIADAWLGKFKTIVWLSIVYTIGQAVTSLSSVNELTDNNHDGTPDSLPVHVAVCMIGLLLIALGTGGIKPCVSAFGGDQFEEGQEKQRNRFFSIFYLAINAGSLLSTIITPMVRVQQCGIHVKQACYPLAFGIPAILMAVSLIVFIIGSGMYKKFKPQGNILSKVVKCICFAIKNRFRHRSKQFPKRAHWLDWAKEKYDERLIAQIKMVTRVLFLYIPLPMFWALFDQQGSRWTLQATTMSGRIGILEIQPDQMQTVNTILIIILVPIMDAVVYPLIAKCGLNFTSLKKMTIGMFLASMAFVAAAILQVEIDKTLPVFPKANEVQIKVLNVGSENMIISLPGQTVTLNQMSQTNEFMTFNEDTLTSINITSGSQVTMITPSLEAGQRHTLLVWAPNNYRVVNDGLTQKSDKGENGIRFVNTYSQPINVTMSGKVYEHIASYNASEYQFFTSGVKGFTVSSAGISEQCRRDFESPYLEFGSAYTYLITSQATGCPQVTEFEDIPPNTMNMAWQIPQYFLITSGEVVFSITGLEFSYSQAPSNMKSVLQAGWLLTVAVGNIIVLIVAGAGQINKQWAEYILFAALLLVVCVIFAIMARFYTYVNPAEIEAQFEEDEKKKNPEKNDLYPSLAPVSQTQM
Description: (§1) Side chain-modified glutamyl thiazolidines having a structure H-Glu(X)-Thia were synthesised, with polyethylene glycol or glycine oligomers of various chain lengths being used as X (see Method A of example for description of synthesis). The binding characteristics of those derivatives and their transportability by the peptide transporter PepT1 were investigated.

PepT1 [3] = target: T3, PepT1; assay: Transport characteristics at PepT1-expressing oocytes of X. leavis, two-electrode voltage clamp; assay type: cell-based
Description: as §1

[4] = intra-vasal (intra-arterial) route

Compound	IC50 (purified porcine DPIV)	Ki [1]	further results
CC[C@H](C)[C@H](NC(=O)[C@@H]1CCCN1C(=O)[C@@H]1CCN1)C(=O)O [Aze-Pro-Ile] (H-[Aze]-Pro-Ile-OH; N-terminus and C-terminus assumed)	72.8 µM	–	–
CCC(C)C(N)C(=O)C1CCCC1 (stereo not drawn) [Ile-cyclopentyl ketone, 1-cyclopentyl-3-methyl-1-oxo-2-pentanaminium chloride]	–	–	inhibition at 100 mg/kg (plasma DPIV activity; iv, intra-vasal (intra-arterial) route, read-out: in vivo DPIV-inhibition at tmax, i.v.): 34%; inhibition at 100 mg/kg (plasma DPIV activity; oral, read-out: in vivo DPIV-inhibition at tmax, p.o.): 15%
Val-Pro-benzothiazol methyl ketone	0.138 µM	0.0373 µM	–
CC[C@H](C)[C@H](N)C(=O)N1CCCC1C#N.O=C(O)C(F)(F)F (stereo partly drawn) [isoleucyl cyano pyrrolidine TFA]	–	–	blood pressure (F344 rats): dose-dependently reduced
Br.CC(=O)OCC(=O)[C@@H]1CCCN1C(=O)[C@@H](NC(=O)[C@H](C)N)C(C)C [Ala-Val-Pro-acyloxy methyl ketone, H-Ala-Val-Pro-CH2O—C(O)CH3*HBr]	–	–	in vivo DPIV-inhibition at tmax, i.v. (plasma DPIV activity; [4]): 89%; in vivo DPIV-inhibition at tmax, p.o. (plasma DPIV activity; oral): 86%
CC(C)[C@H](NC(=O)[C@@H]1CCCN1C(=O)[C@@H](N)C(C)(C)C)C(=O)O [t-butyl-Gly-Pro-Val] (H-[Tle]-Pro-Val-OH; N-terminus and C-terminus assumed)	–	3.08 µM	–
CC(C)C(N)C(=O)C1CCCC1 (stereo not drawn) [Val-cyclopentyl ketone]	49 µM	13.1 µM	–
NC(CC(=O)O)C(=O)N1CCCC1 (stereo not drawn) [H-Asp-pyrrolidine]	–	14 µM	–
CC[C@H](C)[C@H](N)C(=O)N1CCC[C@H]1C(=O)N[C@H](C(=O)O)C(C)(C)C [Ile-Pro-t-butyl-Gly] (H-Ile-Pro-[Tle]-OH; N-terminus and C-terminus assumed)	82.3 µM	18.9 µM	–
Val-Pro-benzoyl methyl ketone	0.0179 µM	0.000536 µM	–
N[C@@H](CCC(=O)NO)C(=O)N1CCSC1 [H-Glu(NHOH)-thiazolidine]	–	1.7 µM	EC50 (PepT1 [2]): 3180 µM; Imax, inward currents generated by the transport (PepT1 [3]): 42 ± 11 nA
Br.CC(C)[C@H](NC(=O)[C@H](C)N)C(=O)N1CCC[C@H]1C(=O)COC(=O)c1ccccc1 [Ala-Val-Pro-benzoyl-methyl ketone, H-Ala-Val-Pro-CH2O—C(O)Ph*HBr]	–	–	in vivo DPIV-inhibition at tmax, i.v. (plasma DPIV activity; [4]): 97%; in vivo DPIV-inhibition at tmax, p.o. (plasma DPIV activity; oral): 76%
Val-cyclohexyl ketone	1000 µM	–	–
H-Glu(PEG)-Thia	–	3.11 µM	EC50 (PepT1 [2]): > 10000 µM
CC[C@@H](C)[C@H](NC(=O)[C@@H]1CCCN1C(=O)[C@@H](N)[C@@H](C)CC)C(=O)O [Ile-Pro-allo-Ile]	–	5.22 µM	–
CC[C@H](C)[C@H](NC(=O)[C@@H]1CCCN1C(=O)[C@@H](N)CCCN)C(=O)O [Orn-Pro-Ile] (H-[Orn]-Pro-Ile-OH; N-terminus and C-terminus assumed)	216 µM	–	–
CC[C@H](C)[C@H](NC(=O)[C@@H]1CCCN1C(=O)[C@@H](N)Cc1ccc(OP(=O)(O)O)cc1)C(=O)O [Tyr(P)-Pro-Ile] (H-[pY]-Pro-Ile-OH; N-terminus and C-terminus assumed)	–	–	in vivo DPIV-inhibition at tmax, p.o. (plasma DPIV activity; oral): no inhibition
N[C@@H](CCC(=O)O)C(=O)N1CCSC1 [H-Glu-thiazolidine]	–	–	Imax, inward currents generated by the transport (PepT1 [3]): 35 ± 13 nA
CC[C@@H](C)[C@H](NC(=O)[C@@H]1CCCN1C(=O)[C@@H](N)Cc1ccc(O)cc1)C(=O)O [Tyr-Pro-allo-Ile] (H-Tyr-Pro-[aIle]-OH; N-terminus and C-terminus assumed)	64.1 µM	18.2 µM	–
CCC(C)C(N)C(=O)N1CC1 (stereo not drawn) [H-Ile-azididine]	–	3.1 µM	–
CCC(C)C(N)C(=O)C1CCCCC1 (stereo not drawn) [Ile-cyclohexyl ketone]	293 µM	56.8 µM	–

Continued, in another order:

IC50 (purified porcine DPIV)	Ki [1]	Compound	further results
273 µM	273 µM	CC(C)(C)C(N)C(=O)C1CCCCC1 (stereo not drawn) [t-butyl-Gly-cyclohexyl ketone]	–
24.9 µM	6.17 µM	CCC[C@H](N)C(=O)N1CCC[C@H]1C(=O)N[C@H](C(=O)O)[C@@H](C)CC [Nva-Pro-Ile] (H-[Nva]-Pro-Ile-OH; N-terminus and C-terminus assumed)	–
–	12.6 µM	CCCCCC[C@H](N)C(=O)N1CCC[C@H]1C(=O)N[C@H](C(=O)O)[C@@H](C)CC [AOA-Pro-Ile, 2-Amino octanoic acid-Pro-Ile] (H-[Aoc(2)]-Pro-Ile-OH)	–
34.3 µM	–	CC[C@H](N)C(=O)N1CCC[C@H]1C(=O)N[C@H](C(=O)O)[C@@H](C)CC [Abu-Pro-Ile] (H-[Abu]-Pro-Ile-OH; N-terminus and C-terminus assumed)	–
112 µM	–	CC(C)[C@@H](NC(=O)[C@@H]1CCCN1C(=O)[C@@H](N)C(C)(C)C)C(=O)O [t-butyl-Gly-Pro-D-Val] (H-[Tle]-Pro-[dV]-OH; N-terminus and C-terminus assumed)	–
67.8 µM	21.6 µM	CC[C@H](C)[C@H](NC(=O)[C@@H]1CCCN1C(=O)[C@@H](N)COCc1ccccc1)C(=O)O [Ser(Bzl)-Pro-Ile] (H-Ser(Bn)-Pro-Ile-OH; N-terminus and C-terminus assumed)	–
0.579 µM	0.0476 µM	CC(=O)C1CCCN1C(=O)C(N)C(C)C (stereo not drawn) [Val-Pro-methyl ketone]	–
–	35 µM	NC(Cc1c[nH]cn1)C(=O)N1CCCC1 (stereo not drawn) [H-His-pyrrolidine]	–
0.0102 µM	0.00105 µM	Val-Pro-acyloxy methyl ketone	–
–	9.54 µM	CC[C@@H](C)[C@H](NC(=O)[C@@H]1CCCN1C(=O)[C@@H](N)C(C)C)C(=O)O [Val-Pro-allo-Ile]	–
